Laboratory results published in US5264347A, “Method for the determination of α-ketoisocaproate in biological samples using D-α-hydroxyisocaproic dehydrogenase from lactobacillus casei” (Kernforschungsanlage Juelich GmbH, priority 1988, dated 1993).

Legend:
[1] = target: T1, hydroxy-acid dehydrogenase (enzyme solution) of L. casei ssp. casei DSM 20 011 (Lacticaseibacillus casei, UniProt A0AAN1C5W2); assay: Selection of a suitable enzyme: initial reaction rate with keto acid, NADH absorption at 340 nm; format: biochemical, Lactobacillus casei ssp. casei; details: 0.15 mM keto acid, 0.2 mM NADH, pH 7.0
T1 sequence (A0AAN1C5W2 1-333): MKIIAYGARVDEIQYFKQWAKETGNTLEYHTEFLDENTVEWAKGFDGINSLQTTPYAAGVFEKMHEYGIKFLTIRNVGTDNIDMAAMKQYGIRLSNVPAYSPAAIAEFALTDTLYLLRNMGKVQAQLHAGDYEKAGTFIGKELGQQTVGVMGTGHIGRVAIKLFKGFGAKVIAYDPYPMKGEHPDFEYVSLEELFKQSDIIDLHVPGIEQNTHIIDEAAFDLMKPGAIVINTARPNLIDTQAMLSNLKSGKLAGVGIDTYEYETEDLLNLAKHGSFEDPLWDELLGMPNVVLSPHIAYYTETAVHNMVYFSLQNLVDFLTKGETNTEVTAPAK
Protocol: (§1) The species Lactobacillus casei is currently divided into five subgroups (subspecies). […] The three keto acids KIC, KMV and KIV were used in a concentration of 0.15 mM (final concentration in the assay).
(§2) For the assay mixture, the microorganisms which had been cultured under customary conditions were harvested, the cells were disrupted by mechanical action, and the supernatant obtained by centrifugation was used as "enzyme solution" for the assay.
(§3) The assay mixture contained:
(§4) 0.1M potassium phosphate buffer, pH 7.0;
(§5) 0.020 ml of enzyme solution (0.1-0.2 mg of protein);
(§6) The initial reaction rate was determined by measuring the absorption at 340 nm as a function of time. (The reaction rate is reported in international units (IU)/min.) The results obtained are summarized below.

[2] = tested on: hydroxy-acid dehydrogenase (enzyme solution) of L. casei ssp. tolerans DSM 20 258; assay: as above; format: biochemical; details: 0.15 mM keto acid, 0.2 mM NADH, pH 7.0
Protocol: as §1, §2, §3, §4, §5, §6

[3] = tested on: hydroxy-acid dehydrogenase (enzyme solution) of L. case ssp. alactosus DSM 20 020; assay: as above; format: biochemical; details: 0.15 mM keto acid, 0.2 mM NADH, pH 7.0
Protocol: as §1, §2, §3, §4, §5, §6

[4] = tested on: hydroxy-acid dehydrogenase (enzyme solution) of L. casei ssp. rhamosus DSM 20 021; assay: as above; format: biochemical; details: 0.15 mM keto acid, 0.2 mM NADH, pH 7.0
Protocol: as §1, §2, §3, §4, §5, §6

[5] = target: T2, hydroxy-acid dehydrogenase (enzyme solution) of L. casei ssp. pseudoplantarum DSM 20 008 (Lacticaseibacillus paracasei, UniProt P17584); assay: as above; format: biochemical, Lactobacillus casei ssp. pseudoplantarum; details: 0.15 mM keto acid, 0.2 mM NADH, pH 7.0
T2 construct: the cells were disrupted by mechanical action, and the supernatant obtained by centrifugation was used as; endogenous in cells; host or cells: Lactobacillus casei ssp. pseudoplantarum DSM 20008, cell-free supernatant
T2 sequence (P17584 1-333): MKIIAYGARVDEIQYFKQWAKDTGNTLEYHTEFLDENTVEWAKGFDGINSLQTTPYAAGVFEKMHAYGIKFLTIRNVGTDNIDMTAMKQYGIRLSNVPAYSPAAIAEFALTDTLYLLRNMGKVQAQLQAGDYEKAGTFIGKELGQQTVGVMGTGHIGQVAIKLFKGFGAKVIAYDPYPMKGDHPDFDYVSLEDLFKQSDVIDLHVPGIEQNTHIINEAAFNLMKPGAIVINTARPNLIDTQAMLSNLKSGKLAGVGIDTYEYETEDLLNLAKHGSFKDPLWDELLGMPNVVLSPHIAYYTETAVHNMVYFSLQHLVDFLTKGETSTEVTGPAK
Protocol: as §1, §2, §3, §4, §5, §6

[6] = target: T3, hydroxy-acid dehydrogenase (enzyme solution) of L. casei ssp. pseudoplantarum DSM 20 207 (Lacticaseibacillus paracasei, UniProt P17584); assay: as above; format: biochemical, Lactobacillus casei ssp. pseudoplantarum; details: 0.15 mM keto acid, 0.2 mM NADH, pH 7.0
T3 sequence (P17584 1-333): T2 sequence (P17584 1-333)
Protocol: as §1, §2, §3, §4, §5, §6

[7] = tested on: hydroxy-acid dehydrogenase (enzyme solution) of L. curvatus DSM 20 019; assay: as above; format: biochemical; details: 0.15 mM keto acid, 0.2 mM NADH, pH 7.0
Protocol: (§7) The species Lactobacillus casei is currently divided into five subgroups (subspecies). […] The three keto acids KIC, KMV and KIV were used in a concentration of 0.15 mM (final concentration in the assay). […] For the assay mixture, the microorganisms which had been cultured under customary conditions were harvested, the cells were disrupted by mechanical action, and the supernatant obtained by centrifugation was used as "enzyme solution" for the assay. Besides the various Lactobacillus casei strains, other Lactobacillus strains were also investigated; two typical representatives are listed in a table below. The assay mixture contained: 0.1M potassium phosphate buffer, pH 7.0; 0.2 mM NADH; 0.020 ml of enzyme solution (0.1-0.2 mg of protein); 0.15 mM keto acid (as shown in the table). The initial reaction rate was determined by measuring the absorption at 340 nm as a function of time. (The reaction rate is reported in international units (IU)/min.) The results obtained are summarized below.

[8] = target: T4, hydroxy-acid dehydrogenase (enzyme solution) of L. confusus DSM 20 196 (Weissella confusa, UniProt P14295); assay: as above; format: biochemical; details: 0.15 mM keto acid, 0.2 mM NADH, pH 7.0
T4 sequence (P14295 1-310): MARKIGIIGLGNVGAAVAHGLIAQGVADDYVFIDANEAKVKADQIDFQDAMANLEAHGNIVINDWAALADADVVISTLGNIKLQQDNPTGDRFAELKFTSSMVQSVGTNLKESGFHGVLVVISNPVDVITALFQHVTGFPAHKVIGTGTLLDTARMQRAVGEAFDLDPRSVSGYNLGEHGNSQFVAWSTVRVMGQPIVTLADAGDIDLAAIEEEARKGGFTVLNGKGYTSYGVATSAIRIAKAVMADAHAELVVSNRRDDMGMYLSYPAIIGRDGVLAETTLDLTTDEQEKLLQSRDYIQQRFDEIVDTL
Protocol: as §7

[9] = target: T5, D-α-hydroxyisocaproic dehydrogenase from Lactobacillus casei ssp. pseudoplantarum (DSM 20008) (Lacticaseibacillus paracasei, UniProt P17584); assay: Enzymatic selectivity for KIC: initial reaction rates versus keto acid concentration (FIG. 1); format: biochemical; details: change per minute in absorption at 340 nm versus keto-acid concentration, NADH present
T5 construct: D-α-hydroxyisocaproic dehydrogenase from Lactobacillus casei ssp. pseudoplantarum (DSM 20008); endogenous in cells; host or cells: Lactobacillus casei ssp. pseudoplantarum DSM 20008 (enzyme isolated from the strain's own cells)
T5 sequence (P17584 1-333): T2 sequence (P17584 1-333)
Excerpt: This selectivity is illustrated in FIG. 1, which plots a measure of reaction rate (change per minute in absorption at 340 nm), in the presence of NADH and a Lactobacillus casei D-α-hydroxyisocaproicdehydrogenase, versus keto-acid concentration for KIC, KMV and KIV, respectively. In FIG. 1, .largecircle.--.largecircle. represents ketoisocaproate, O O represents ketomethylvalerate and .quadrature.----.quadrature. represents ketoisovalerate, respectively.
This entailed use of standard solutions of the three keto acids, each of known concentration (0.2 to 15 ωg/ml of assay mixture).
as §3, §4
stepped concentrations of keto acids.
The initial reaction rates (ΔA340 /min) were measured at 340 nm. […] This difference would be sufficient for a selective determination of KIC, for example, in serum.

## CCC(C)C(=O)C(=O)O (stereo not drawn) [KMV, ketomethylvalerate]
[1]
  initial reaction rate: 0 IU/min
[2]
  initial reaction rate: 0 IU/min
[3]
  initial reaction rate: 0 IU/min
[4]
  initial reaction rate: 0 IU/min
[5]
  initial reaction rate: 0.12 IU/min
[6]
  initial reaction rate: 0 IU/min
[7]
  initial reaction rate: 1.40 IU/min
[8]
  initial reaction rate: 0.90 IU/min
[9]
  enzymatic conversion relative to the conversion of KIC (FIG. 1): can be ignored
